In US20090048288A1, “METHOD OF TREATING STRESS-MEDIATED DEPRESSION” (H. Lundbeck A/S, priority 2007, published 2009):
“Also recorded” adds a separate entry of the source.

Tested on: Chronic mild stress model in rats
Assay: Chronic mild stress model in rats, serum marker analysis
Conditions: for Apo A1 (Apolipoprotein A1), median value: serum 24 hrs after last drug injection; for reversal of chronic mild stress induced changes in serum inflammatory markers / cytokine levels: rats exposed to chronic mild stress, compared with non-stressed controls
Text: The biochemical changes induced in the animals studied in the stress models lead to increases in inflammatory mediators/markers.
At the end of the present study, terminal serum samples were collected for marker analysis to evaluate the effects of stress with and without drug on the levels of about 60 blood markers.
Serum samples were withdrawn from the tail, without stunning, during the daytime (09:00-17:00) 24 hrs after the last drug injection. Blood was collected into BD vacutainers containing clot activator and gel for serum preparation, inverted 5 times and maintained on ice until centrifugation at 3000 rpm for 10 min at 4° C. Serum was decanted, placed on ice, and at the end of the day stored at −80° C.

## CN(C)CCC[C@@]1(c2ccc(F)cc2)OCc2cc(C#N)ccc21 [ESC, escitalopram, reference compound]
1st study, 5 mg/kg, serum
  CRP (C Reactive Protein), median value: 1060.00 µg/mL
  Eotaxin, median value: 1300.00 pg/mL
  FGF-9 (Fibroblast Growth Factor-9), median value: 0.90 ng/mL
  GCP-2 (Granulocyte Chemotactic Protein-2), median value: 0.21 ng/mL
  Growth Hormone, median value: 1.38 ng/mL
  IL-1alpha (Interleukin-1alpha), median value: 15.40 pg/mL
  IL-2 (Interleukin-2), median value: 38.80 pg/mL
  IL-4 (Interleukin-4), median value: 51.70 pg/mL
  IL-7 (Interleukin-7), median value: 0.22 ng/mL
  IL-10 (Interleukin-10), median value: 317.00 pg/mL
  IL-11 (Interleukin-11), median value: 166.00 pg/mL
  IP-10 (Inducible Protein-10), median value: 194.00 pg/mL
  IgA (Immunoglobulin A), median value: 6.54 µg/mL
  Insulin, median value: 11.30 uIU/mL
  LIF (Leukemia Inhibitory Factor), median value: 67.20 pg/mL
  Leptin, median value: 2.62 ng/mL
  Lymphotactin, median value: 68.00 pg/mL
  M-CSF (Macrophage-Colony Stimulating Factor), median value: 941.00 ng/mL
  MCP-1 (Monocyte Chemoattractant Protein-1), median value: 1500.00 pg/mL
  MCP-3 (Monocyte Chemoattractant Protein-3), median value: 885.00 pg/mL
  MCP-5 (Monocyte Chemoattractant Protein-5), median value: 0.87 pg/mL
  MIP-1alpha (Macrophage Inflammatory Protein-1alpha), median value: 244.00 ng/mL
  MIP-1gamma (Macrophage Inflammatory Protein-1gamma), median value: 11.50 ng/mL
  MIP-2 (Macrophage Inflammatory Protein-2), median value: 0.09 pg/mL
  MPO (Myeloperoxidase), median value: 54.60 ng/mL
  NGAL (Lipocalin-2), median value: 0.22 ng/mL
  Osteopontin, median value: 310.00 ng/mL
  SAP (Serum Amyloid P), median value: 178.00 µg/mL
  SCF (Stem Cell Factor), median value: 16.95 pg/mL
  SGOT (Serum Glutamic-Oxaloacetic Transaminase), median value: 0.31 µg/mL
  TIMP-1 (Tissue Inhibitor of Metalloproteinase Type-1), median value: 0.22 ng/mL
  TPO (Thrombopoietin), median value: 142.00 ng/mL
  Tissue Factor, median value: 0.15 ng/mL
  VCAM-1 (Vascular Cell Adhesion Molecule-1), median value: 409.00 ng/mL
  VEGF (Vascular Endothelial Cell Growth Factor), median value: 106.00 pg/mL
1st study, 5 mg/kg
  Apo A1 (Apolipoprotein A1), median value: 8.40 µg/mL
  reversal of chronic mild stress induced changes in serum inflammatory markers / cytokine levels: inactive at most of these changes

## Oc1noc2c1CCNC2 [GBX, 4,5,6,7-tetrahydroisoxazolo[5,4-c]pyridine-3-ol]
1st study, 5 mg/kg, serum
  CRP (C Reactive Protein), median value: 1140.00 µg/mL
  Cystatin-C, median value: 1165.00 ng/mL
  FGF-9 (Fibroblast Growth Factor-9), median value: 0.59 ng/mL
  GCP-2 (Granulocyte Chemotactic Protein-2), median value: 0.19 ng/mL
  Growth Hormone, median value: 7.67 ng/mL
  IL-1alpha (Interleukin-1alpha), median value: 11.30 pg/mL
  IL-2 (Interleukin-2), median value: 31.30 pg/mL
  IL-4 (Interleukin-4), median value: 29.60 pg/mL
  IL-7 (Interleukin-7), median value: 0.16 ng/mL
  IL-10 (Interleukin-10), median value: 249.00 pg/mL
  IL-11 (Interleukin-11), median value: 128.00 pg/mL
  IL-18 (Interleukin-18), median value: 0.07 ng/mL
  IP-10 (Inducible Protein-10), median value: 138.00 pg/mL
  IgA (Immunoglobulin A), median value: 5.91 µg/mL
  Insulin, median value: 8.88 uIU/mL
  LIF (Leukemia Inhibitory Factor), median value: 53.90 pg/mL
  Leptin, median value: 2.59 ng/mL
  Lymphotactin, median value: 53.80 pg/mL
  M-CSF (Macrophage-Colony Stimulating Factor), median value: 865.00 ng/mL
  MCP-1 (Monocyte Chemoattractant Protein-1), median value: 1185.00 pg/mL
  MCP-3 (Monocyte Chemoattractant Protein-3), median value: 655.00 pg/mL
  MCP-5 (Monocyte Chemoattractant Protein-5), median value: 0.77 pg/mL
  MIP-1alpha (Macrophage Inflammatory Protein-1alpha), median value: 173.00 ng/mL
  MIP-1gamma (Macrophage Inflammatory Protein-1gamma), median value: 7.95 ng/mL
  MIP-2 (Macrophage Inflammatory Protein-2), median value: 0.08 pg/mL
  MPO (Myeloperoxidase), median value: 20.80 ng/mL
  NGAL (Lipocalin-2), median value: 0.17 ng/mL
  Osteopontin, median value: 396.00 ng/mL
  SAP (Serum Amyloid P), median value: 133.00 µg/mL
  SCF (Stem Cell Factor), median value: 14.85 pg/mL
  SGOT (Serum Glutamic-Oxaloacetic Transaminase), median value: 0.21 µg/mL
  TIMP-1 (Tissue Inhibitor of Metalloproteinase Type-1), median value: 0.16 ng/mL
  TPO (Thrombopoietin), median value: 147.00 ng/mL
  Tissue Factor, median value: 0.10 ng/mL
  VCAM-1 (Vascular Cell Adhesion Molecule-1), median value: 361.00 ng/mL
  VEGF (Vascular Endothelial Cell Growth Factor), median value: 81.00 pg/mL
1st study, 5 mg/kg
  Apo A1 (Apolipoprotein A1), median value: 8.20 µg/mL
2nd study, 10 mg/kg, serum
  Beta-2 Microglobulin, median value: 38.00 µg/mL
  CRP (C Reactive Protein), median value: 1030.00 µg/mL
  Clusterin, median value: 108.00 µg/mL
  Cystatin-C, median value: 696.00 ng/mL
  Eotaxin, median value: 1072.00 pg/mL
  FGF-9 (Fibroblast Growth Factor-9), median value: 1.70 ng/mL
  Factor VII, median value: 0.30 ng/mL
  GCP-2 (Granulocyte Chemotactic Protein-2), median value: 0.29 ng/mL
  GST-Mu, median value: 1190.00 ng/mL
  Growth Hormone, median value: 3.10 ng/mL
  IL-1beta (Interleukin-1beta), median value: 0.56 ng/mL
  IL-2 (Interleukin-2), median value: 22.00 pg/mL
  IL-5 (Interleukin-5), median value: 0.24 ng/mL
  IL-7 (Interleukin-7), median value: 0.06 ng/mL
  IL-10 (Interleukin-10), median value: 362.00 pg/mL
  IL-18 (Interleukin-18), median value: 0.43 ng/mL
  IP-10 (Inducible Protein-10), median value: 41.00 pg/mL
  IgA (Immunoglobulin A), median value: 4.30 µg/mL
  Insulin, median value: 14.50 uIU/mL
  LIF (Leukemia Inhibitory Factor), median value: 67.00 pg/mL
  Leptin, median value: 1.35 ng/mL
  Lymphotactin, median value: 63.00 pg/mL
  M-CSF (Macrophage-Colony Stimulating Factor), median value: 1400.00 ng/mL
  MCP-1 (Monocyte Chemoattractant Protein-1), median value: 1020.00 pg/mL
  MCP-3 (Monocyte Chemoattractant Protein-3), median value: 659.00 pg/mL
  MCP-5 (Monocyte Chemoattractant Protein-5), median value: 0.72 pg/mL
  MDC (Macrophage-Derived Chemokine), median value: 0.12 pg/mL
  MIP-1alpha (Macrophage Inflammatory Protein-1alpha), median value: 127.00 ng/mL
  MIP-1beta (Macrophage Inflammatory Protein-1beta), median value: 0.01 pg/mL
  MIP-1gamma (Macrophage Inflammatory Protein-1gamma), median value: 19.00 ng/mL
  MIP-2 (Macrophage Inflammatory Protein-2), median value: 0.22 pg/mL
  MIP-3beta (Macrophage Inflammatory Protein-3beta), median value: 29.70 ng/mL
  MPO (Myeloperoxidase), median value: 533.00 ng/mL
  Myoglobin, median value: 520.00 ng/mL
  NGAL (Lipocalin-2), median value: 0.15 ng/mL
  OSM (Oncostatin M), median value: 19.10 ng/mL
  Osteopontin, median value: 255.00 ng/mL
  RANTES (Regulation Upon Activation, Normal T-Cell Expressed and Secreted), median value: 10.60 pg/mL
  SAP (Serum Amyloid P), median value: 403.00 µg/mL
  SCF (Stem Cell Factor), median value: 11.30 pg/mL
  SGOT (Serum Glutamic-Oxaloacetic Transaminase), median value: 8.53 µg/mL
  TIMP-1 (Tissue Inhibitor of Metalloproteinase Type-1), median value: 0.24 ng/mL
  TNF-alpha (Tumor Necrosis Factor-alpha), median value: 4.45 ng/mL
  TPO (Thrombopoietin), median value: 119.00 ng/mL
  Tissue Factor, median value: 0.06 ng/mL
  VCAM-1 (Vascular Cell Adhesion Molecule-1), median value: 353.00 ng/mL
  VEGF (Vascular Endothelial Cell Growth Factor), median value: 78.00 pg/mL
2nd study, 10 mg/kg
  Apo A1 (Apolipoprotein A1), median value: 6.20 µg/mL
Listed as gaboxadol
  reversal of chronic mild stress induced changes in serum inflammatory markers / cytokine levels: dose dependently was able to reverse most of the chronic mild stress induced changes in cytokine levels; also recorded: significantly reversed the stress-induced alterations in serum markers toward levels found in non-stressed controls; also recorded: dose dependently is able to reverse or partially reverse changes at most in inflammatory parameters induced by chronic mild stress
